# Entries after “also recorded” stand apart in the source; their conditions may differ. Like-named read-outs stand apart in the source and are kept apart here.
# Experiments:
# bullfrog gastric mucosa [1] = experiment: Acid secretion of frog (bullfrog) gastric mucosa stimulated with histamine/carbachol or forskolin; type: cell-based; conditions: for Rate of decline in acid secretion: from the linear portion of the inhibition curve, 1 mM cimetidine, 10 mM NH4Cl, 2 mM KCN; for effect of 0.5 and 1 mM barium on acid secretion (in words): up to 3 hr; for acid secretion with 10 mM imidazole, 3 hr: 10 mM nutrient imidazole (5 mM Iz), pH 7.1, 3 hr
# bullfrog gastric mucosa [2] = type: cell-based
# Protocol: FIG. 1B Electrophysiology in the bullfrog gastric mucosa. […] Removal of NH4Cl was followed by a complete recovery of R within 30 min. Data were obtained from 21 experiments and are expressed as the mean±SEM.
# FIG. 1C Electrophysiology in the bullfrog gastric mucosa. […] Removal of NH4Cl was followed by a complete recovery of PD within 30 min. Data were obtained from 21 experiments and are expressed as the mean±SEM.
# bullfrog gastric mucosa [3] = tested on: bullfrog gastric mucosa
# [4] = Time 90″: after 90 min stimulation with histamine/carbachol, start of incubation with 1 mM cimetidine, 0.3 mM omeprazole, 10 mM NH4Cl or 2 mM KCN
# [5] = Time 120″, 1 mM cimetidine or 0.3 mM omeprazole added at 90 min
# [6] = Time 150″, 1 mM cimetidine or 0.3 mM omeprazole added at 90 min
# [7] = blocker first (0.5-5 mM barium, 1-10 mM TEA, 10-100 μM tolbutamide, 10 μM clotrimazole, imidazole, 100 μM bumetamide, amiloride, 1 mM oubain, 0.3 mM DIDS), then 10 mM NH4Cl, within 30 min
# [8] = blocker first, then 10 mM NH4Cl, within 30 min
# [9] = nutrient solution, vs control tissues, imidazole 100 μM Iz (200 μM nutrient), TEA 1-10 mM, tolbutamide 10-100 μM, clotrimazole 10 μM, bumetamide 100 μM, amiloride, oubain 1 mM, DIDS 0.3 mM, KCN, KCl 2 mM, methylamine
# [10] = 10 mM NH4Cl within 30 min, 0.5, 1, 5 mM barium, TEA, tolbutamide, clotrimazole, vs control tissues
# [11] = 10 mM NH4Cl within 30 min, barium, TEA, tolbutamide, clotrimazole, vs control tissues
# [12] = blocker first (0.5 and 1 mM barium, TEA, tolbutamide, clotrimazole), then 10 mM NH4Cl, within 30 min
smiles,measurement,setting,value
"CN/C(=N/CCSCc1nc[nH]c1C)NC#N [Cimetidine, cimetidine]",Acid secretion,bullfrog gastric mucosa [1]; [4],5.59 ± 0.13 μEq/h · cm^2
same,Acid secretion,bullfrog gastric mucosa [1]; [5],3.51 ± 0.21 μEq/h · cm^2
same,Acid secretion,bullfrog gastric mucosa [1]; [6],0.83 ± 0.22 μEq/h · cm^2
same,Rate of decline in acid secretion,bullfrog gastric mucosa [1]; 0.3 mM omeprazole,−0.07935 (μEq/h · cm^2)/min
"CC[N+](CC)(CC)CC [TEA, tetraethylammonium]",acid secretion after 10 mM NH4Cl added to tissues treated with the blocker,bullfrog gastric mucosa [1],0 μEq/hr cm^2
same,effect of 10 mM NH4Cl on acid secretion of tissues treated with the blocker (in words),bullfrog gastric mucosa [1],abolished
same,effect on stimulated acid secretion (in words),bullfrog gastric mucosa [1],no effect on stimulated acid secretion; also recorded: no significant decline
same,PD after 10 mM NH4Cl added to tissues treated with the blocker (in words),bullfrog gastric mucosa [2],increase in PD
same,R after 10 mM NH4Cl added to tissues treated with the blocker (in words),bullfrog gastric mucosa [2],R increased in all tissues; also recorded: increase in R
same,effect on potential difference (PD) of stimulated tissues (in words),bullfrog gastric mucosa [2],no effect
same,effect on resistance (R) of stimulated tissues (in words),bullfrog gastric mucosa [2],no effect on R; also recorded: not significantly different from that of control tissues
N=C(N)NC(=O)c1nc(Cl)c(N)nc1N [amiloride],acid secretion after 10 mM NH4Cl added to tissues treated with the blocker,bullfrog gastric mucosa [1]; [7],0.188±0.140 μEq/hr cm^2
same,effect of 10 mM NH4Cl on acid secretion of tissues treated with the blocker (in words),bullfrog gastric mucosa [1]; [8],declined
same,effect on stimulated acid secretion (in words),bullfrog gastric mucosa [1]; [9],unchanged; also recorded: little effect on stimulated acid secretion; also recorded: no significant reduction in acid secretion
"COc1ccc2[nH]c([S+]([O-])Cc3ncc(C)c(OC)c3C)nc2c1 (stereo not drawn) [Omeprazole, omeprazole]",Acid secretion,bullfrog gastric mucosa [1]; [4],5.45 ± 0.30 μEq/h · cm^2
same,Acid secretion,bullfrog gastric mucosa [1]; [5],2.03 ± 0.21 μEq/h · cm^2
same,Acid secretion,bullfrog gastric mucosa [1]; [6],0.30 ± 0.10 μEq/h · cm^2
same,Rate of decline in acid secretion,bullfrog gastric mucosa [1]; 0.3 mM omeprazole,−0.09034 (μEq/h · cm^2)/min
"[Cl-].[K+] [KCl, Potassium chloride]",effect on stimulated acid secretion (in words),bullfrog gastric mucosa [1],little effect on acid secretion
CCCCNc1cc(C(=O)O)cc(S(N)(=O)=O)c1Oc1ccccc1 [bumetamide],acid secretion after 10 mM NH4Cl added to tissues treated with the blocker,bullfrog gastric mucosa [1]; [7],0.645±0.278 μEq/hr cm^2
same,effect of 10 mM NH4Cl on acid secretion of tissues treated with the blocker (in words),bullfrog gastric mucosa [1]; [8],declined
same,effect on stimulated acid secretion (in words),bullfrog gastric mucosa [1]; [9],unchanged; also recorded: little effect on stimulated acid secretion; also recorded: no significant reduction in acid secretion
O=S(=O)(O)c1cc(N=C=S)ccc1C=Cc1ccc(N=C=S)cc1S(=O)(=O)O [DIDS],acid secretion with DIDS,"bullfrog gastric mucosa [1]; 0.3 mM DIDS, 60 min, from 5.25±0.12",2.29±0.18 μEq/hr cm^2
same,acid secretion after 10 mM NH4Cl added to tissues treated with the blocker,bullfrog gastric mucosa [1]; [7],0 μEq/hr cm^2
same,effect of 10 mM NH4Cl on acid secretion of tissues treated with the blocker (in words),bullfrog gastric mucosa [1]; [8],declined; also recorded: immediately reduced acid secretion to zero
same,effect on stimulated acid secretion (in words),bullfrog gastric mucosa [1]; [9],"approximately one half of the initial rate; also recorded: partially, but not completely, inhibited"
[Ba] [barium],acid secretion with 0.5 mM barium,"bullfrog gastric mucosa [1]; 0.5 mM barium, 3 hr (180 min), from 5.23±0.29",4.12±0.38 μEq/hr cm^2
same,acid secretion with 1 mM barium,"bullfrog gastric mucosa [1]; 1 mM barium, 3 hr (180 min), from 5.35±0.22",4.20±0.21 μEq/hr cm^2
same,acid secretion with 5 mM barium,"bullfrog gastric mucosa [1]; 5 mM barium, 3 hr (180 min), from 5.19±0.22",2.89±0.33 μEq/hr cm^2
same,reduction of acid secretion compared to control tissues,"bullfrog gastric mucosa [1]; 5 mM barium, by 3 hr",44%
same,effect of 5 mM barium on acid secretion (in words),"bullfrog gastric mucosa [1]; 5 mM barium, vs control tissues",significantly (P=0.0085) different from control tissues; also recorded: significantly different from that of control tissues
same,effect of 0.5 and 1 mM barium on acid secretion (in words),bullfrog gastric mucosa [1]; vs control tissues,not different from that of control tissues; also recorded: inhibition of acid secretion does not occur
same,effect of 0.5 and 1 mM barium on acid secretion (in words),"bullfrog gastric mucosa [1]; vs control tissues, listed as Barium",not significantly different from that of control tissues
same,acid secretion after 10 mM NH4Cl added to tissues treated with the blocker,bullfrog gastric mucosa [1]; [7],0 μEq/hr cm^2
same,effect of 10 mM NH4Cl on acid secretion of tissues treated with the blocker (in words),bullfrog gastric mucosa [1]; [8],abolished
same,effect on resistance (R) of stimulated tissues (in words),bullfrog gastric mucosa [2]; [10],increased significantly; also recorded: significant increase in R
same,effect on potential difference (PD) of stimulated tissues (in words),bullfrog gastric mucosa [2]; [11],unaffected; also recorded: little to no influence on PD; also recorded: not significantly different from that of control tissues
same,R after 10 mM NH4Cl added to tissues treated with the blocker (in words),bullfrog gastric mucosa [2]; [12],R increased similar to that of control tissues; also recorded: increase in R
same,PD after 10 mM NH4Cl added to tissues treated with the blocker (in words),bullfrog gastric mucosa [2]; [8],PD increased in all groups; also recorded: increase in PD
c1c[nH]cn1 [imidazole],acid secretion with 100 μM imidazole,"bullfrog gastric mucosa [1]; 100 μM Iz, 3 hr (180 min), from 5.47±0.26",4.86±0.29 μEq/hr cm^2
same,"acid secretion with 10 mM imidazole, 30 min","bullfrog gastric mucosa [1]; 10 mM imidazole (5 mM Iz, 5 mM Iz+), 30 min, from 6.60±0.43",4.60±0.43 μEq/hr cm^2
same,"acid secretion with 10 mM imidazole, 3 hr",bullfrog gastric mucosa [1]; from 6.60±0.43,4.06±0.46 μEq/hr cm^2
same,"acid secretion with 10 mM imidazole, 3 hr","bullfrog gastric mucosa [1]; from 6.60±0.43, listed as Iz",4.03 μEq/hr cm^2
same,acid secretion after 10 mM NH4Cl added to tissues treated with the blocker,bullfrog gastric mucosa [1]; [7],0±0 μEq/hr cm^2
same,effect of 10 mM NH4Cl on acid secretion of tissues treated with the blocker (in words),bullfrog gastric mucosa [1]; [8],inhibited completely; also recorded: inhibited acid secretion immediately
same,effect on stimulated acid secretion (in words),bullfrog gastric mucosa [1]; [9],no effect on acid secretion; also recorded: not significantly different from that of control tissues
same,effect on stimulated acid secretion (in words),"bullfrog gastric mucosa [1]; nutrient solution, vs control tissues, imidazole 100 μM Iz (200 μM nutrient), TEA 1-10 mM, tolbutamide 10-100 μM, clotrimazole 10 μM, bumetamide 100 μM, amiloride, oubain 1 mM, DIDS 0.3 mM, KCN, KCl 2 mM, methylamine, listed as Iz",not significantly different from that of control tissues
C[C@@H]1O[C@@H](O[C@H]2C[C@@H](O)[C@]3(CO)[C@H]4[C@H](O)C[C@]5(C)[C@@H](C6=CC(=O)OC6)CC[C@]5(O)[C@@H]4CC[C@]3(O)C2)[C@H](O)[C@H](O)[C@H]1O [oubain],effect on stimulated acid secretion (in words),bullfrog gastric mucosa [1],unchanged; also recorded: little effect on stimulated acid secretion; also recorded: no significant reduction in acid secretion
same,acid secretion after 10 mM NH4Cl added to tissues treated with the blocker,bullfrog gastric mucosa [1]; [7],0 μEq/hr cm^2
same,effect of 10 mM NH4Cl on acid secretion of tissues treated with the blocker (in words),bullfrog gastric mucosa [1]; [8],declined
"N [ammonia (NH3), ammonia]",concentration of ammonia (NH3) that completely inhibits acid secretion within 30 min,"bullfrog gastric mucosa [1]; NH3 present in 10 mM NH4Cl at pH 7.2, basolateral exposure",92.5 µM
same,NH3 lost from the nutrient solution,bullfrog gastric mucosa [3]; 10 mM,61.46 µM
same,luminal NH3 concentration after 30 min,"bullfrog gastric mucosa [3]; 30 min, 10 mM",0.00133 ± 0.00133 µM
same,nutrient NH3 concentration at 30 min,"bullfrog gastric mucosa [3]; 30 min, 10 mM",538.3±6.7
CN [methylamine],acid secretion after methylamine washed from the nutrient solution,bullfrog gastric mucosa [1],3.74±0.41 μEq/hr cm^2
same,"acid secretion after washout, % of the starting level",bullfrog gastric mucosa [1],60%
same,acid secretion with methylamine,bullfrog gastric mucosa [1],0.081±0.056 μEq/hr cm^2
same,effect on stimulated acid secretion (in words),bullfrog gastric mucosa [1],rapidly inhibits acid secretion
same,least (minimum) concentration required for complete inhibition of acid secretion within 30 min,bullfrog gastric mucosa [1],50 mM
same,flux rate of methylamine in inhibited tissues,bullfrog gastric mucosa [3],0.601±0.114 μM/h cm^2
same,flux rate of methylamine in stimulated tissues,bullfrog gastric mucosa [3],2.25±0.088 μM/h cm^2
Clc1ccccc1C(c1ccccc1)(c1ccccc1)n1ccnc1 [clotrimazole],acid secretion after 10 mM NH4Cl added to tissues treated with the blocker,bullfrog gastric mucosa [1]; [7],0 μEq/hr cm^2
same,effect of 10 mM NH4Cl on acid secretion of tissues treated with the blocker (in words),bullfrog gastric mucosa [1]; [8],abolished
same,effect on stimulated acid secretion (in words),bullfrog gastric mucosa [1]; [9],no effect on stimulated acid secretion; also recorded: no significant decline
same,effect on resistance (R) of stimulated tissues (in words),bullfrog gastric mucosa [2]; [10],no effect; also recorded: not significantly different from that of control tissues
same,effect on potential difference (PD) of stimulated tissues (in words),bullfrog gastric mucosa [2]; [11],no effect
same,R after 10 mM NH4Cl added to tissues treated with the blocker (in words),bullfrog gastric mucosa [2]; [12],increase in R
same,PD after 10 mM NH4Cl added to tissues treated with the blocker (in words),bullfrog gastric mucosa [2]; [8],increase in PD
CCCCNC(=O)NS(=O)(=O)c1ccc(C)cc1 [tolbutamide],acid secretion after 10 mM NH4Cl added to tissues treated with the blocker,bullfrog gastric mucosa [1]; [7],0 μEq/hr cm^2
same,effect of 10 mM NH4Cl on acid secretion of tissues treated with the blocker (in words),bullfrog gastric mucosa [1]; [8],abolished
same,effect on stimulated acid secretion (in words),bullfrog gastric mucosa [1]; [9],no effect on stimulated acid secretion; also recorded: no significant decline
same,effect on resistance (R) of stimulated tissues (in words),bullfrog gastric mucosa [2]; [10],no effect; also recorded: not significantly different from that of control tissues
same,effect on potential difference (PD) of stimulated tissues (in words),bullfrog gastric mucosa [2]; [11],no effect
same,R after 10 mM NH4Cl added to tissues treated with the blocker (in words),bullfrog gastric mucosa [2]; [12],increase in R
same,PD after 10 mM NH4Cl added to tissues treated with the blocker (in words),bullfrog gastric mucosa [2]; [8],increase in PD

# Reference: patent publication US20040224880A1, “Regulation of gastric acid secretion by inwardly rectifying k+ channels” (Beth Israel Deaconess Medical Center, Inc., priority 2001, published 2004)
